In patent US20240066027A1 (DOMAIN THERAPEUTICS, priority 2020, published 2024):
Structures can show the parent of a compound that is named as a salt.

Biological target: T1, human PAR-2 (hPAR-2) receptor expressed in HEK-293 T cells in an endogenous manner (Homo sapiens, UniProt P55085)
T1 construct: human PAR-2 (hPAR-2) receptor expressed in HEK-293 T cells in an endogenous manner; endogenous in cells; host or cells: HEK-293 T cells
T1 sequence (P55085 26-397): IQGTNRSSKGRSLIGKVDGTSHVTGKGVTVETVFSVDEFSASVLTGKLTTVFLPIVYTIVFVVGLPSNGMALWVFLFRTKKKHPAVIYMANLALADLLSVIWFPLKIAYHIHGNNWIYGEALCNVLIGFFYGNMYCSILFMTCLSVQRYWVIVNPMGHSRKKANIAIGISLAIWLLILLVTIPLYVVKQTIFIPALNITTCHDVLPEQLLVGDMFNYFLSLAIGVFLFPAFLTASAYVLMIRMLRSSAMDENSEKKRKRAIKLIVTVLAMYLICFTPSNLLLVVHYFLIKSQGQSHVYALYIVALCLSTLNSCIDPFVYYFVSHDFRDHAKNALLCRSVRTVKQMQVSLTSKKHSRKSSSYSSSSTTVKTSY
Assay: In vitro human PAR-2 functional antagonist activity using calcium assays (Fluo4AM, FLIPR Tetra)
Type: cell-based
Details: HEK-293 T cells stimulated by an EC80 of the 2-Furoyl-LIGRLO-NH2 peptide after 10 min incubation with compound; 20 concentrations, duplicate, two independent experiments
Procedure, shortened: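 Antagonist activity was taken as the decrease in the calcium response to an EC80 of 2-Furoyl-LIGRLO-NH2, measured over 5 min. The agonist was added after a 10 min compound-alone step on the same plate. The HEK-293 T cells express PAR-2 endogenously and were loaded with 1 μM Fluo4AM. Signals were referenced to buffer and EC80-alone controls.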

| IC50 [nM] | SMILES |
| --- | --- |
| 20 to 10000 | CC(C)Cn1cc(-c2ccc(Cl)cc2F)c2ccc(C(=O)N3CCNC(=O)C3(C)C)nc21 [Example 115, 4-(3-(4-chloro-2-fluorophenyl)-1-isobutyl-1H-pyrrolo[2,3-b]pyridine-6-carbonyl)-3,3-dimethylpiperazin-2-one] |
| 20 to 10000 | CC(C)(C)n1cc(-c2ccc(Cl)c(F)c2)c2ccc(C(=O)N3CCC(CC(N)=O)CC3)nc21 [Example 163, 2-(1-(1-(tert-butyl)-3-(4-chloro-3-fluorophenyl)-1H-pyrrolo[2,3-b]pyridine-6-carbonyl)piperidin-4-yl)acetamide] |
| 20 to 10000 | Cc1cc(C2=CCN(C(=O)c3ccc4c(-c5ccc(Cl)c(F)c5)cn(C(C)(C)C)c4n3)CC2)nc(C)c1C(=O)O [Example 167, 1′-(1-(tert-butyl)-3-(4-chloro-3-fluorophenyl)-1H-pyrrolo[2,3-b]pyridine-6-carbonyl)-4,6-dimethyl-1′,2′,3′,6′-tetrahydro-[2,4′-bipyridine]-5-carboxylic acid] |
| 20 to 10000 | Cc1cc(N2C[C@@H]3C[C@H]2CN3C(=O)c2ccc3c(-c4ccc(Cl)c(F)c4)cn(C(C)(C)C)c3n2)nc(C)c1C(=O)O [Example 148, 6-((1S,4S)-5-(1-(tert-butyl)-3-(4-chloro-3-fluorophenyl)-1H-pyrrolo[2,3-b]pyridine-6-carbonyl)-2,5-diazabicyclo[2.2.1]heptan-2-yl)-2,4-dimethyinicotinic acid] |
| 20 to 10000 | Cc1cc(N2CCN(C(=O)c3ccc4c(-c5ccc(Cl)c(F)c5)cn(Cc5cccnc5)c4n3)C(C)(C)C2)nc(C)c1C(=O)O [Example 135, 6-(4-(3-(4-chloro-3-fluorophenyl)-1-(pyridin-3-ylmethyl)-1H-pyrrolo[2,3-b]pyridine-6-carbonyl)-3,3-dimethylpiperazin-1-yl)-2,4-dimethylnicotinic acid hydrochloride] |
| > 10000 | CC(C)Cc1nn(Cc2ccc(Cl)c(F)c2)c2ccc(C(=O)N3CCNC(=O)C3(C)C)nc12 [Example 78, 4-(1-(4-chloro-3-fluorobenzyl)-3-isobutyl-1H-pyrazolo[4,3-b]pyridine-5-carbonyl)-3,3-dimethylpiperazin-2-one] |
| > 10000 | CC(C)Cn1cc(C2=CCN(C)CC2)c2ccc(C(=O)N3CCNC(=O)C3(C)C)nc21 [Example 91, 4-(1-isobutyl-3-(1-methyl-1,2,3,6-tetrahydropyridin-4-yl)-1H-pyrrolo[2,3-b]pyridine-6-carbonyl)-3,3-dimethylpiperazin-2-one hydrochloride] |
| 20 to 10000 | CC(C)Cn1cc(-c2ccc3ccccc3c2)c2ccc(C(=O)N3CCNC(=O)C3(C)C)nc21 [Example 226, 4-(1-isobutyl-3-(naphthalen-2-yl)-1H-pyrrolo[2,3-b]pyridine-6-carbonyl)-3,3-dimethylpiperazin-2-one] |
| 20 to 10000 | CN1CCN(C(=O)c2ccc3c(-c4ccc(Cl)c(F)c4)cn(C(C)(C)C)c3n2)CC1=O [Example 20, 4-(1-(tertbutyl)-3-(4-chloro-3-fluorophenyl)-1H-pyrrolo[2,3-b]pyridine-6-carbonyl)-1-methylpiperazin-2-one] |
| < 20 | Cc1cc(N2CCN(C(=O)c3ccc4c(-c5ccc(Cl)c(F)c5)cn(C[C@@H]5CCCO5)c4n3)C(C)(C)C2)nc(C)c1C(=O)O [Example 211, (S)-6-(4-(3-(4-chloro-3-fluorophenyl)-1-((tetrahydrofuran-2-yl)methyl)-1H-pyrrolo[2,3-b]pyridine-6-carbonyl)-3,3-dimethylpiperazin-1-yl)-2,4-dimethylnicotinic acid] |
| > 10000 | Cc1cc2c(-c3ccc(Cl)c(F)c3)cn(CC(C)C)c2nc1C(=O)N1CCN(c2cc(C)c(C(=O)O)c(C)n2)CC1 [Example 186, 6-(4-(3-(4-chloro-3-fluorophenyl)-1-isobutyl-5-methyl-1H-pyrrolo[2,3-b]pyridine-6-carbonyl)piperazin-1-yl)-2,4-dimethylnicotinic acid] |
| 20 to 10000 | Cc1cc(N2CCN(C(=O)c3ccc4c(-c5ccc(Cl)c(F)c5)cn(Cc5ncco5)c4n3)C(C)(C)C2)nc(C)c1C(=O)O [Example 173] |
| < 20 | Cc1cc(N2CCN(C(=O)c3ccc4c(-c5ccc(Cl)c(F)c5)cn(CC(C)C)c4n3)C(C)(C)C2)nc(C)c1C(=O)O [Example 95, 6-(4-(3-(4-chloro-3-fluorophenyl)-1-isobutyl-1H-pyrrolo[2,3-b]pyridine-6-carbonyl)-3,3-dimethylpiperazin-1-yl)-2,4-dimethylnicotinic acid] |
| < 20 | Cc1cc(N2CCN(C(=O)c3ccc4c(-c5ccc(Cl)c(F)c5)cn(C5(C)CCC5)c4n3)C(C)(C)C2)nc(C)c1C(=O)O [Example 121, 6-(4-(3-(4-chloro-3-fluorophenyl)-1-(1-methylcyclobutyl)-1H-pyrrolo[2,3-b]pyridine-6-carbonyl)-3,3-dimethylpiperazin-1-yl)-2,4-dimethylnicotinic acid] |
| 20 to 10000 | Cc1cc2c(-c3ccc(Cl)c(F)c3)cn(CC(C)C)c2nc1C(=O)N1CCN(c2cc(C)c(C(=O)O)c(C)n2)CC1(C)C [Example 174, 6-(4-(3-(4-chloro-3-fluorophenyl)-1-isobutyl-5-methyl-1H-pyrrolo[2,3-b]pyridine-6-carbonyl)-3,3-dimethylpiperazin-1-yl)-2,4-dimethylnicotinic acid] |
| < 20 | Cc1cc(N2CCN(C(=O)c3ccc4c(-c5ccc(Cl)c(F)c5)cn(C(C)C)c4n3)C(C)(C)C2)nc(C)c1C(=O)O [Example 97, 6-(4-(3-(4-chloro-3-fluorophenyl)-1-isopropyl-1H-pyrrolo[2,3-b]pyridine-6-carbonyl)-3,3-dimethylpiperazin-1-yl)-2,4-dimethyinicotinic acid] |
| < 20 | Cc1ccc(-c2cn(CC(C)C)c3nc(C(=O)N4CCN(c5cc(C)c(C(=O)O)c(C)n5)CC4(C)C)ccc23)cc1F [Example 142, 6-(4-(3-(3-fluoro-4-methylphenyl)-1-isobutyl-1H-pyrrolo[2,3-b]pyridine-6-carbonyl)-3,3-dimethylpiperazin-1-yl)-2,4-dimethylnicotinic acid] |
| < 20 | Cc1cc(N2CCN(C(=O)c3ccc4c(-c5cc(F)c(F)c(F)c5)cn(CC(C)C)c4n3)C(C)(C)C2)nc(C)c1C(=O)O [Example 143, 6-(4-(1-isobutyl-3-(3,4,5-trifluorophenyl)-1H-pyrrolo[2,3-b]pyridine-6-carbonyl)-3,3-dimethylpiperazin-1-yl)-2,4-dimethylnicotinic acid] |
| 20 to 10000 | Cc1nc(Cn2cc(-c3ccc(Cl)c(F)c3)c3ccc(C(=O)N4CCN(c5cc(C)c(C(=O)O)c(C)n5)CC4(C)C)nc32)c(C)o1 [Example 159, 6-(4-(3-(4-chloro-3-fluorophenyl)-1-((2,5-dimethyloxazol-4-yl)methyl)-1H-pyrrolo[2,3-b]pyridine-6-carbonyl)-3,3-dimethylpiperazin-1-yl)-2,4-dimethylnicotinic acid] |
| < 20 | CC[C@H](C)n1cc(-c2ccc(Cl)c(F)c2)c2ccc(C(=O)N3CCN(c4cc(C)c(C(=O)O)c(C)n4)CC3(C)C)nc21 [Example 172, (S)-6-(4-(1-(sec-butyl)-3-(4-chloro-3-fluorophenyl)-1H-pyrrolo[2,3-b]pyridine-6-carbonyl)-3,3-dimethylpiperazin-1-yl)-2,4-dimethylnicotinic acid] |
| 20 to 10000 | COC(=O)C1CCN(C(=O)c2ccc3c(-c4ccc(Cl)c(F)c4)cn(C(C)(C)C)c3n2)CC1(C)C (centres unmarked) [Example 21, methyl 1-(1-(tert-butyl)-3-(4-chloro-3-fluorophenyl)-1H-pyrrolo[2,3-b]pyridine-6-carbonyl)-3,3-dimethylpiperidine-4-carboxylate] |
| < 20 | Cc1cc(N2CCN(C(=O)c3ccc4c(-c5ccc(Cl)c(F)c5)cn(C[C@H]5CCCO5)c4n3)C(C)(C)C2)nc(C)c1C(=O)O [Example 212, (R)-6-(4-(3-(4-chloro-3-fluorophenyl)-1-((tetrahydrofuran-2-yl)methyl)-1H-pyrrolo[2,3-b]pyridine-6-carbonyl)-3,3-dimethylpiperazin-1-yl)-2,4-dimethylnicotinic acid] |
| 20 to 10000 | CC(C)(C)c1nc(-c2ccc(Cl)cc2)n2ccc(C(=O)N3CCN(c4ccc(C(=O)O)cn4)CC3(C)C)nc12 [Example 217, 6-(4-(8-(tert-butyl)-6-(4-chlorophenyl)imidazo[1,5-a]pyrimidine-2-carbonyl)-3,3-dimethylpiperazin-1-yl)nicotinic acid] |
| 20 to 10000 | Cc1cccc(-c2cn(CC(C)C)c3nc(C(=O)N4CCNC(=O)C4(C)C)ccc23)c1 [Example 118, 4-(1-isobutyl-3-(m-tolyl)-1H-pyrrolo[2,3-b]pyridine-6-carbonyl)-3,3-dimethylpiperazin-2-one] |
| < 20 | CC1(C)CN(c2ccc(C(=O)O)cn2)CCN1C(=O)c1ccc2c(-c3ccc(Cl)c(F)c3)cn(C(C)(C)C)c2n1 [Example 137, 6-(4-(1-(tert-butyl)-3-(4-chloro-3-fluorophenyl)-1H-pyrrolo[2,3-b]pyridine-6-carbonyl)-3,3-dimethylpiperazin-1-yl)nicotinic acid] |
| > 10000 | CC(C)(C)n1cc(-c2ccc(Cl)c(F)c2)c2ccc(C(=O)N3CCN(c4cn[nH]c(=O)c4)CC3)nc21 [Example 208, 5-(4-(1-(tert-butyl)-3-(4-chloro-3-fluorophenyl)-1H-pyrrolo[2,3-b]pyridine-6-carbonyl)piperazin-1-yl)pyridazin-3(2H)-one] |
